Measured values reported in paper PMC11087509, “Multimodal binding and inhibition of bacterial ribosomes by the antimicrobial peptides Api137 and Api88” (Nature Communications, 2024).
Where a SMILES comes first, the peptide text is derived from it. The star is where a group is joined. Orn(α-tetramethylguanidino) = CN(C)C(=N[C@@H](CCCN)C(=O)*)N(C)C

What was measured:
purified 70S ribosomes = assay: In vitro transcription-translation (ITT) of sfGFP; format: biochemical, E. coli
From the text: sfGFP was expressed using the NEB PureExpress Delta RF123 Kit (New England Biolabs). The sfGFP DNA template encoding for an UAG stop codon was amplified from the pY71sfGFP plasmid by PCR using sfGFP primers (sfGFP fwd: […] and sfGFP rev: […]). The release factor RF1 included in the kit was 50-fold diluted (v/v) in freshly prepared 1x Pure System Buffer (PSB, 9 mmol/L magnesium acetate, 5 mmol/L K3PO4 (pH 7.3), 95 mmol/L potassium glutamate, 5 mmol/L NH4Cl, 0.5 mmol/L CaCl2, 1 mmol/L spermidine, 8 mmol/L putrescine, 1 mmol/L DTT). sfGFP was expressed in a freshly prepared mixture of kit solution A (2 µL), kit solution B (1.5 µL), 50-fold diluted RF1 (0.5 µL), sfGFP template (0.1325 pmol, 35 ng) or water as control (0.25 µL), PSB (0.25 µL), and a PrAMP (50, 5, 0.05 or 0 µmol/L) dissolved in water (0.5 µL). The reaction mixture was transferred to a black 384-well plate (Greiner Bio-One GmbH, Frickenhausen, Germany), covered with a lid, and incubated in a microplate reader (Gemini EM, Molecular Devices) at 37 °C for two hours. Fluorescence was recorded every 10 min (λexc = 485 nm, λem = 535 nm).

50S subunit = molecular target: T1, 50S subunit (Escherichia coli, UniProt P0A7M6+P0ADZ0+P60723+P61175); assay: Cryo-EM of 50S•Api137 and 50S•Api88 complexes; format: binding, E. coli; conditions: 50S 0.3 µM, peptide 30 µM, Tico buffer pH 7.6, room temperature, 20 min
T1 construct: Ribosomes were isolated from the E. coli strain MRE600; made in house; native subunits isolated in house
Method: Several hundred grams of log-phase cells were commercially produced and purchased. Cells were washed in buffer A (20 mmol/L HEPES (pH 7.6), 6 mmol/L MgAc2, 30 mmol/L AcOK, 4 mmol/L ß-mercaptoethanol) and lysed in an M-110L microfluidizer (Microfluidics) at 17,000 psi and 4 °C. Cell debris was removed by low-speed centrifugation (15,000× g, 10 min, 4 °C) to obtain S30 lysate. Crude ribosomes, mostly containing 70S ribosomes, were pelleted by ultracentrifugation (40,000× g, 17 h, 4 °C) and resuspended in buffer A. The 70S ribosomes were separated from 30S and 50S subunits by zonal ultracentrifugation (Beckman Ti-15; 6–40% sucrose gradient in buffer A, 44,000× g, 16 h, 4 °C). The 70S-containing fractions were collected, and the ribosomes were sedimented by ultracentrifugation (40,000× g, 17 h, 4 °C). […]
Purified 50S subunits (0.3 µM) were incubated with Api137 or Api88 (30 µM) in Tico buffer (20 mM HEPES/KOH, pH 7.6, 30 mM AcOK, 6 mM Mg(AcO)2, 4 mM 2-mercaptoethanol) at room temperature for 20 min. The complexes were applied to glow-discharged (Pelco Easy Glow) holey carbon grids (400 Mesh Cu R2/2, Quantifoil MicroTools GmbH) and plunge-frozen in liquid ethane using a Vitrobot Mark IV (Thermo Fisher Scientific) device. […]

murine infection models = conditions: various models, different routes of administration; cited from earlier work
From the text: Here we have focused on two structurally modified versions of apidaecin 1b ([…]), which was originally isolated from the western honeybee (Apis mellifera). […] Api137 and Api88 differ only in their C-termini, i.e., a free acid versus an amide, which are negatively charged or neutral, respectively, ...

uL22 and uL4 = conditions: cited from earlier work

With `CC[C@H](C)[C@H](NC(=O)[C@H](Cc1ccc(O)cc1)NC(=O)[C@@H](NC(=O)[C@@H]1CCCN1C(=O)[C@H](CCCNC(=N)N)NC(=O)[C@H](CC(N)=O)NC(=O)[C@H](CC(N)=O)NC(=O)[C@H](CCCN)N=C(N(C)C)N(C)C)C(C)C)C(=O)N1CCC[C@H]1C(=O)N[C@@H](CCCNC(=N)N)C(=O)N1CCC[C@H]1C(=O)N[C@@H](CCCNC(=N)N)C(=O)N1CCC[C@H]1C(=O)N1CCC[C@H]1C(=O)N[C@@H](Cc1c[nH]cn1)C(=O)N1CCC[C@H]1C(=O)N[C@@H](CCCNC(=N)N)C(=O)N[C@@H](CC(C)C)C(=O)O` [Api137] ({Orn(α-tetramethylguanidino)}-NNRPVYIPRPRPPHPRL-OH) the “production of sfGFP reduced down to” value (purified 70S ribosomes; absence of RF1, 50 µmol/L) was ~ 60%, the “share of inhibitory effect based on a RF1-independent mechanism” value (purified 70S ribosomes; in vitro protein translation, with vs without RF1) was “half of the inhibitory effect” and the “binding sites identified on 50S” value (50S subunit) was “another apidaecin molecule in an unexpected location near the exit of the PET”. The “efficacy in murine infection models” value (murine infection models) was “demonstrated efficacy in various murine infection models” and the “ribosomal proteins interacting (genetic screen)” value (uL22 and uL4) was “uL22 and uL4”.
